Results from BigSolDB 2.1.

CC(C)(C)[C@H](O)[C@H](Cc1ccc(Cl)cc1)n1cncn1 (racemic)
solubility (mole fraction) (in 1,4-dioxane, 278.15 K): 0.0156
solubility (mole fraction) (in 1,4-dioxane, 280.65 K): 0.0168
solubility (mole fraction) (in 1,4-dioxane, 283.15 K): 0.0183
solubility (mole fraction) (in 1,4-dioxane, 285.65 K): 0.0203
solubility (mole fraction) (in 1,4-dioxane, 288.15 K): 0.0223
solubility (mole fraction) (in 1,4-dioxane, 290.65 K): 0.0248
solubility (mole fraction) (in 1,4-dioxane, 293.15 K): 0.0271
solubility (mole fraction) (in 1,4-dioxane, 295.65 K): 0.0296
solubility (mole fraction) (in 1,4-dioxane, 298.15 K): 0.0324
solubility (mole fraction) (in 1,4-dioxane, 300.65 K): 0.0351
solubility (mole fraction) (in 1,4-dioxane, 303.15 K): 0.0381
solubility (mole fraction) (in 1,4-dioxane, 305.65 K): 0.0412
solubility (mole fraction) (in 1,4-dioxane, 308.15 K): 0.044
solubility (mole fraction) (in 1,4-dioxane, 310.65 K): 0.0475
solubility (mole fraction) (in 1,4-dioxane, 313.15 K): 0.0512
solubility (mole fraction) (in 1,4-dioxane, 315.65 K): 0.0551
solubility (mole fraction) (in 1,4-dioxane, 318.15 K): 0.0593
solubility (mole fraction) (in acetone, 278.15 K): 0.0135
solubility (mole fraction) (in acetone, 280.65 K): 0.0145
solubility (mole fraction) (in acetone, 283.15 K): 0.0155
solubility (mole fraction) (in acetone, 285.65 K): 0.0167
solubility (mole fraction) (in acetone, 288.15 K): 0.0181
solubility (mole fraction) (in acetone, 290.65 K): 0.0194
solubility (mole fraction) (in acetone, 293.15 K): 0.0209
solubility (mole fraction) (in acetone, 295.65 K): 0.0223
solubility (mole fraction) (in acetone, 298.15 K): 0.0239
solubility (mole fraction) (in acetone, 300.65 K): 0.0253
solubility (mole fraction) (in acetone, 303.15 K): 0.0269
solubility (mole fraction) (in acetone, 305.65 K): 0.0284
solubility (mole fraction) (in acetone, 308.15 K): 0.0301
solubility (mole fraction) (in acetone, 310.65 K): 0.0317
solubility (mole fraction) (in acetone, 313.15 K): 0.0335
solubility (mole fraction) (in acetone, 315.65 K): 0.0353
solubility (mole fraction) (in acetone, 318.15 K): 0.0372
solubility (mole fraction) (in acetonitrile, 278.15 K): 0.00239
solubility (mole fraction) (in acetonitrile, 280.65 K): 0.00267
solubility (mole fraction) (in acetonitrile, 283.15 K): 0.00295
solubility (mole fraction) (in acetonitrile, 285.65 K): 0.00331
solubility (mole fraction) (in acetonitrile, 288.15 K): 0.00366
solubility (mole fraction) (in acetonitrile, 290.65 K): 0.00405
solubility (mole fraction) (in acetonitrile, 293.15 K): 0.00449
solubility (mole fraction) (in acetonitrile, 295.65 K): 0.00495
solubility (mole fraction) (in acetonitrile, 298.15 K): 0.00544
solubility (mole fraction) (in acetonitrile, 300.65 K): 0.00596
solubility (mole fraction) (in acetonitrile, 303.15 K): 0.00653
solubility (mole fraction) (in acetonitrile, 305.65 K): 0.00709
solubility (mole fraction) (in acetonitrile, 308.15 K): 0.00776
solubility (mole fraction) (in acetonitrile, 310.65 K): 0.00846
solubility (mole fraction) (in acetonitrile, 313.15 K): 0.00916
solubility (mole fraction) (in acetonitrile, 315.65 K): 0.01
solubility (mole fraction) (in acetonitrile, 318.15 K): 0.011
solubility (mole fraction) (in ethanol, 278.15 K): 0.00749
solubility (mole fraction) (in ethanol, 280.65 K): 0.0081
solubility (mole fraction) (in ethanol, 283.15 K): 0.00885
solubility (mole fraction) (in ethanol, 285.65 K): 0.00979
solubility (mole fraction) (in ethanol, 288.15 K): 0.0107
solubility (mole fraction) (in ethanol, 290.65 K): 0.0117
solubility (mole fraction) (in ethanol, 293.15 K): 0.0128
solubility (mole fraction) (in ethanol, 295.65 K): 0.0138
solubility (mole fraction) (in ethanol, 298.15 K): 0.0149
solubility (mole fraction) (in ethanol, 300.65 K): 0.016
solubility (mole fraction) (in ethanol, 303.15 K): 0.0173
solubility (mole fraction) (in ethanol, 305.65 K): 0.0185
solubility (mole fraction) (in ethanol, 308.15 K): 0.02
solubility (mole fraction) (in ethanol, 310.65 K): 0.0214
solubility (mole fraction) (in ethanol, 313.15 K): 0.0229
solubility (mole fraction) (in ethanol, 315.65 K): 0.0246
solubility (mole fraction) (in ethanol, 318.15 K): 0.0265
solubility (mole fraction) (in ethyl acetate, 278.15 K): 0.00783
solubility (mole fraction) (in ethyl acetate, 280.65 K): 0.00895
solubility (mole fraction) (in ethyl acetate, 283.15 K): 0.0104
solubility (mole fraction) (in ethyl acetate, 285.65 K): 0.0118
solubility (mole fraction) (in ethyl acetate, 288.15 K): 0.0133
solubility (mole fraction) (in ethyl acetate, 290.65 K): 0.0153
solubility (mole fraction) (in ethyl acetate, 293.15 K): 0.0175
solubility (mole fraction) (in ethyl acetate, 295.65 K): 0.0201
solubility (mole fraction) (in ethyl acetate, 298.15 K): 0.0228
solubility (mole fraction) (in ethyl acetate, 300.65 K): 0.0255
solubility (mole fraction) (in ethyl acetate, 303.15 K): 0.029
solubility (mole fraction) (in ethyl acetate, 305.65 K): 0.0324
solubility (mole fraction) (in ethyl acetate, 308.15 K): 0.0359
solubility (mole fraction) (in ethyl acetate, 310.65 K): 0.0395
solubility (mole fraction) (in ethyl acetate, 313.15 K): 0.0444
solubility (mole fraction) (in ethyl acetate, 315.65 K): 0.0497
solubility (mole fraction) (in ethyl acetate, 318.15 K): 0.0552
solubility (mole fraction) (in isopropanol, 278.15 K): 0.00707
solubility (mole fraction) (in isopropanol, 280.65 K): 0.00766
solubility (mole fraction) (in isopropanol, 283.15 K): 0.00835
solubility (mole fraction) (in isopropanol, 285.65 K): 0.00912
solubility (mole fraction) (in isopropanol, 288.15 K): 0.00985
solubility (mole fraction) (in isopropanol, 290.65 K): 0.0108
solubility (mole fraction) (in isopropanol, 293.15 K): 0.0117
solubility (mole fraction) (in isopropanol, 295.65 K): 0.0127
solubility (mole fraction) (in isopropanol, 298.15 K): 0.0138
solubility (mole fraction) (in isopropanol, 300.65 K): 0.0149
solubility (mole fraction) (in isopropanol, 303.15 K): 0.0161
solubility (mole fraction) (in isopropanol, 305.65 K): 0.0173
solubility (mole fraction) (in isopropanol, 308.15 K): 0.0185
solubility (mole fraction) (in isopropanol, 310.65 K): 0.0197
solubility (mole fraction) (in isopropanol, 313.15 K): 0.021
solubility (mole fraction) (in isopropanol, 315.65 K): 0.0225
solubility (mole fraction) (in isopropanol, 318.15 K): 0.0242
solubility (mole fraction) (in n-butanol, 278.15 K): 0.0134
solubility (mole fraction) (in n-butanol, 280.65 K): 0.0141
solubility (mole fraction) (in n-butanol, 283.15 K): 0.0151
solubility (mole fraction) (in n-butanol, 285.65 K): 0.0162
solubility (mole fraction) (in n-butanol, 288.15 K): 0.0173
solubility (mole fraction) (in n-butanol, 290.65 K): 0.0184
solubility (mole fraction) (in n-butanol, 293.15 K): 0.0198
solubility (mole fraction) (in n-butanol, 295.65 K): 0.0211
solubility (mole fraction) (in n-butanol, 298.15 K): 0.0224
solubility (mole fraction) (in n-butanol, 300.65 K): 0.0238
solubility (mole fraction) (in n-butanol, 303.15 K): 0.0251
solubility (mole fraction) (in n-butanol, 305.65 K): 0.0266
solubility (mole fraction) (in n-butanol, 308.15 K): 0.0279
solubility (mole fraction) (in n-butanol, 310.65 K): 0.0295
solubility (mole fraction) (in n-butanol, 313.15 K): 0.0308
solubility (mole fraction) (in n-butanol, 315.65 K): 0.0324
solubility (mole fraction) (in n-butanol, 318.15 K): 0.0341
solubility (mole fraction) (in n-propanol, 278.15 K): 0.0124
solubility (mole fraction) (in n-propanol, 280.65 K): 0.0131
solubility (mole fraction) (in n-propanol, 283.15 K): 0.0139
solubility (mole fraction) (in n-propanol, 285.65 K): 0.0146
solubility (mole fraction) (in n-propanol, 288.15 K): 0.0155
solubility (mole fraction) (in n-propanol, 290.65 K): 0.0163
solubility (mole fraction) (in n-propanol, 293.15 K): 0.0172
solubility (mole fraction) (in n-propanol, 295.65 K): 0.0182
solubility (mole fraction) (in n-propanol, 298.15 K): 0.0192
solubility (mole fraction) (in n-propanol, 300.65 K): 0.0203
solubility (mole fraction) (in n-propanol, 303.15 K): 0.0215
solubility (mole fraction) (in n-propanol, 305.65 K): 0.0228
solubility (mole fraction) (in n-propanol, 308.15 K): 0.0241
solubility (mole fraction) (in n-propanol, 310.65 K): 0.0253
solubility (mole fraction) (in n-propanol, 313.15 K): 0.0265
solubility (mole fraction) (in n-propanol, 315.65 K): 0.0278
solubility (mole fraction) (in n-propanol, 318.15 K): 0.0291
solubility (mole fraction) (in toluene, 278.15 K): 0.0416
solubility (mole fraction) (in toluene, 280.65 K): 0.0426
solubility (mole fraction) (in toluene, 283.15 K): 0.0437
solubility (mole fraction) (in toluene, 285.65 K): 0.045
solubility (mole fraction) (in toluene, 288.15 K): 0.0462
solubility (mole fraction) (in toluene, 290.65 K): 0.0473
solubility (mole fraction) (in toluene, 293.15 K): 0.0484
solubility (mole fraction) (in toluene, 295.65 K): 0.0496
solubility (mole fraction) (in toluene, 298.15 K): 0.0508
solubility (mole fraction) (in toluene, 300.65 K): 0.0521
solubility (mole fraction) (in toluene, 303.15 K): 0.0533
solubility (mole fraction) (in toluene, 305.65 K): 0.0546
solubility (mole fraction) (in toluene, 308.15 K): 0.0557
solubility (mole fraction) (in toluene, 310.65 K): 0.057
solubility (mole fraction) (in toluene, 313.15 K): 0.0584
solubility (mole fraction) (in toluene, 315.65 K): 0.0597
solubility (mole fraction) (in toluene, 318.15 K): 0.061
